Experimental data as given in PubChem BioAssay (NCI).
Several values for one entry are separate records, joined by “and”; a condition that tells them apart may be missing. Equal values may be shown once.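 48-hour exposure; five concentrations; linearly interpolated endpoints. GI50: concentration for 50% inhibition of growth. TGI: concentration producing complete growth inhibition.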

What was measured:
Experiment in all cases: growth of human tumour cells (NCI), 48 h
[1] = test system: OVCAR-4 ovarian
[2] = test system: SR leukemia
[3] = test system: SW-620 colon
[4] = test system: T-47D breast
[5] = test system: SN12C renal
[6] = test system: NCI-H226 lung
[7] = test system: PC-3 prostate
[8] = test system: HS 578T breast

For `C[C@@H]1COC(Nc2ccc3ncnc(Nc4ccc(OCc5nccs5)c(Cl)c4)c3c2)=N1`, the GI50 [1] was 5.72 µM and 3.79 µM, the TGI [1] was > 10 µM and 17.3 µM and the GI50 [2] was 6.79 µM and 3.97 µM. The TGI [2] was > 10 µM and 21.9 µM, the GI50 [3] was > 10 µM and 14.6 µM and the TGI [3] was > 10 µM and 59.7 µM. For the same compound, the GI50 [4] was 0.286 µM and 1.03 µM, the TGI [4] was > 10 µM and 12.5 µM and the GI50 [5] was 6.15 µM and 4.86 µM. For the same compound, the TGI [5] was > 10 µM and 26 µM, the GI50 [6] was 4.02 µM and 4.04 µM and the TGI [6] was > 10 µM and 18.2 µM. The GI50 [7] was 3.37 µM and 2.98 µM, the TGI [7] was > 10 µM and 13.2 µM and the GI50 [8] was 5.23 µM and 5.24 µM. For the same compound, the TGI [8] was > 10 µM and 48.9 µM.

In the case of `COc1ccc2c(c1)[C@@]1(C)CCC3c4ccc(O)cc4CCC3C1C2` (some centres undefined), the GI50 [1] is reported as 13.7 µM, the TGI [1] is reported as 28.4 µM and the GI50 [2] is reported as 16.3 µM. The TGI [2] was > 100 µM, the GI50 [3] was 16.9 µM and the TGI [3] was 36.1 µM. It also gave a GI50 [4] of 11.7 µM, a TGI [4] of 26.8 µM and a GI50 [5] of 16.8 µM. It also gave a TGI [5] of 32 µM, a GI50 [6] of 18.7 µM and a TGI [6] of 38.2 µM. The GI50 [7] was 20.1 µM, the TGI [7] was 42 µM and the GI50 [8] was 19.4 µM. For the same compound, the TGI [8] was 39.3 µM.

`Oc1cc(Cl)ccc1Cc1ccc(Cl)cc1O` was tested, and the GI50 [1] was 6.6 µM, the TGI [1] was 34.8 µM and the GI50 [2] was 10.5 µM. The TGI [2] was > 100 µM, the GI50 [3] was 9.73 µM and the TGI [3] was 21.4 µM. It also gave a GI50 [4] of 4.91 µM, a TGI [4] of 29.3 µM and a GI50 [5] of 7.92 µM. It also gave a TGI [5] of 20.6 µM, a GI50 [6] of 24.7 µM and a TGI [6] of 57.8 µM. It also gave a GI50 [7] of 6.23 µM, a TGI [7] of 83 µM and a GI50 [8] of 7.2 µM. It also gave a TGI [8] of 32.8 µM.

Compound `O=C1OCC2=C1C(c1cccc(C(F)(F)F)c1)c1cc3c(cc1N2CCO)CCC3` (centres undefined) has a GI50 [1] of 1.05 µM, a TGI [1] of 11.2 µM and a GI50 [3] of 0.189 µM. It also gave a TGI [3] of 9.16 µM, a GI50 [5] of 0.309 µM and a TGI [5] of 7.76 µM. The GI50 [6] was 1 µM, the TGI [6] was 9.43 µM and the GI50 [7] was 0.194 µM. It also gave a TGI [7] of 7.56 µM, a GI50 [8] of 0.146 µM and a TGI [8] of 7.72 µM.

For `COc1cc2ncn(-c3cc(OCc4ccccc4S(C)(=O)=O)c(C#N)s3)c2cc1OC`, the GI50 [1] was > 25 µM, the TGI [1] was > 25 µM and the GI50 [2] was > 25 µM. For the same compound, the TGI [2] was > 25 µM, the GI50 [3] was > 25 µM and the TGI [3] was > 25 µM. The GI50 [4] was > 25 µM, the TGI [4] was > 25 µM and the GI50 [5] was > 25 µM. The TGI [5] was > 25 µM, the GI50 [6] was > 25 µM and the TGI [6] was > 25 µM. For the same compound, the GI50 [7] was > 25 µM, the TGI [7] was > 25 µM and the GI50 [8] was > 17.9 µM. The TGI [8] was > 25 µM.

For `Cc1ccc(/C(=C/C=C(C#N)C#N)Sc2ccccn2)cc1`, the GI50 [1] was 3.01 µM, the TGI [1] was 11.6 µM and the GI50 [2] was 3.06 µM. The TGI [2] was 10.4 µM, the GI50 [3] was 0.474 µM and the TGI [3] was 1.96 µM. The GI50 [4] was 4 µM, the TGI [4] was > 24.7 µM and the GI50 [5] was 1.91 µM. For the same compound, the TGI [5] was 4.72 µM, the GI50 [6] was 2.53 µM and the TGI [6] was 7.06 µM. The GI50 [7] was 4.65 µM, the TGI [7] was > 20.5 µM and the GI50 [8] was 2.46 µM. It also gave a TGI [8] of 8.32 µM.

In the case of `Cc1cn2c(=O)n(c1=O)Cc1ccccc1C2`, the GI50 [1] is reported as > 100 µM, the TGI [1] is reported as > 100 µM and the GI50 [3] is reported as > 100 µM. The TGI [3] was > 100 µM, the GI50 [4] was 0.182 µM and the TGI [4] was 10.8 µM. For the same compound, the GI50 [5] was > 100 µM, the TGI [5] was > 100 µM and the GI50 [7] was > 100 µM. The TGI [7] was > 100 µM, the GI50 [8] was 8.97 µM and the TGI [8] was > 100 µM.

With `Cc1ccc2[nH]c(C(=O)NN3C(=O)C(C)SC34CCCCC4C)c(-c3ccccc3)c2c1` (centres undefined) the GI50 [1] was 15.9 µM, the TGI [1] was 36.1 µM and the GI50 [3] was 19.8 µM. The TGI [3] was 53.2 µM, the GI50 [4] was 24.6 µM and the TGI [4] was 78.9 µM. It also gave a GI50 [5] of 15.7 µM, a TGI [5] of 31.6 µM and a GI50 [6] of 17.4 µM. The TGI [6] was 34.2 µM, the GI50 [7] was 15.3 µM and the TGI [7] was 37.6 µM. It also gave a GI50 [8] of 14.4 µM and a TGI [8] of 43.2 µM.

With `C=C1C(=O)O[C@H]2C[C@@H]1CCC1(C)OC1CC/C(C)=C/CC[C@H]2C` (some centres undefined) the GI50 [2] was 18.1 µM, the TGI [2] was 33 µM and the GI50 [3] was 19.2 µM. It also gave a TGI [3] of 36.9 µM, a GI50 [4] of 16.9 µM and a TGI [4] of 37.6 µM. It also gave a GI50 [5] of 19 µM, a TGI [5] of 35.5 µM and a GI50 [6] of 18.7 µM. For the same compound, the TGI [6] was 39.4 µM, the GI50 [7] was 19.4 µM and the TGI [7] was 33.5 µM. The GI50 [8] was 24 µM and the TGI [8] was 61 µM.

Work on `COc1cc2c3c(n(CCCNCCNCCCN)c(=O)c2cc1OC)-c1cc2c(cc1C3=O)OCO2` yielded a GI50 [1] of 4.64 µM, a TGI [1] of 19.9 µM and a GI50 [3] of 2.03 µM. It also gave a TGI [3] of 10.7 µM, a GI50 [4] of 2.72 µM and a TGI [4] of 17.3 µM. For the same compound, the GI50 [5] was 1.66 µM, the TGI [5] was 7.17 µM and the GI50 [6] was 2.06 µM. It also gave a TGI [6] of 7.06 µM, a GI50 [7] of 13.2 µM and a TGI [7] of 56.3 µM. For the same compound, the GI50 [8] was 1.38 µM and the TGI [8] was 7.93 µM.

With `COc1cc(OC)cc(-c2cncn2-c2ccc(-c3nc4cc(OC)cc(OC)c4s3)cc2)c1` the GI50 [2] was 3.3 µM, the TGI [2] was > 100 µM and the GI50 [4] was 5.77 µM. The TGI [4] was > 100 µM, the GI50 [5] was > 100 µM and the TGI [5] was > 100 µM. For the same compound, the GI50 [6] was 18.5 µM, the TGI [6] was > 100 µM and the GI50 [8] was 5.02 µM. For the same compound, the TGI [8] was > 100 µM.

`OCc1ccc(Oc2c3ccccc3nc3occc23)cc1` was tested, and the GI50 [1] was 37.9 µM, the TGI [1] was > 100 µM and the GI50 [2] was 38.5 µM. For the same compound, the TGI [2] was > 100 µM, the GI50 [4] was 6.94 µM and the TGI [4] was 62.4 µM. For the same compound, the GI50 [5] was 24.5 µM, the TGI [5] was 62.3 µM and the GI50 [7] was 31.8 µM. For the same compound, the TGI [7] was > 100 µM, the GI50 [8] was 54.8 µM and the TGI [8] was > 100 µM.

With `CN1C(=O)C(c2c[nH]c3ccccc23)=C(c2c(-c3c[nH]c4ccccc34)[nH]c3ccccc23)C1=O` the GI50 [1] was 15.5 µM, the TGI [1] was > 100 µM and the GI50 [2] was 5.19 µM. It also gave a TGI [2] of 9.68 µM, a GI50 [4] of 4.72 µM and a TGI [4] of 66.8 µM. The GI50 [5] was 2.64 µM, the GI50 [7] was 3.11 µM and the TGI [7] was 17.3 µM. The GI50 [8] was 3 µM and the TGI [8] was 13.6 µM.

For `NC1=NC(c2ccc(F)cc2)C2=C(N1)c1ccc3ccccc3c1OCC2` (centres undefined), the GI50 [1] was > 100 µM, the TGI [1] was > 100 µM and the GI50 [2] was 2.37 µM. The TGI [2] was > 100 µM, the GI50 [4] was 13.5 µM and the TGI [4] was > 100 µM. The GI50 [5] was 22.2 µM, the TGI [5] was > 100 µM and the GI50 [6] was 9.57 µM. The TGI [6] was 57.4 µM, the GI50 [7] was > 100 µM and the TGI [7] was > 100 µM. The GI50 [8] was 11.4 µM and the TGI [8] was > 100 µM.

For `N/C(=N\c1nc2ccccc2s1)NC(=O)Nc1cccc2ccccc12`, the GI50 [2] was 0.0591 µM, the TGI [2] was > 100 µM and the GI50 [3] was 0.26 µM. For the same compound, the TGI [3] was > 100 µM, the GI50 [4] was 0.556 µM and the TGI [4] was > 100 µM. For the same compound, the GI50 [5] was 0.861 µM, the TGI [5] was > 100 µM and the GI50 [6] was 0.6 µM. For the same compound, the TGI [6] was > 68.9 µM, the GI50 [7] was 0.318 µM and the TGI [7] was > 100 µM. It also gave a GI50 [8] of 0.302 µM and a TGI [8] of 5.41 µM.

With `COc1ccc(-n2c3c(c4c(CN(C)C)c(O)c(C)cc42)CCc2ccccc2C3=O)cc1` the GI50 [3] was 32.5 µM, the TGI [3] was > 100 µM and the GI50 [4] was > 100 µM. For the same compound, the TGI [4] was > 100 µM, the GI50 [5] was 29.6 µM and the TGI [5] was > 100 µM. The GI50 [6] was 28.3 µM, the TGI [6] was > 100 µM and the GI50 [7] was 11.7 µM. The TGI [7] was 50.3 µM, the GI50 [8] was 48.2 µM and the TGI [8] was > 100 µM.
